The source of these data is paper PMC13077603, “Fluorine‐18‐Labeled Nucleotide Analogs Targeting Ecto‐5'‐Nucleotidase (CD73) for Positron Emission Tomography Imaging of Solid Tumors” (Angewandte Chemie (International Ed. in English), 2026).

The nature of this data set: PET/gamma counter biodistribution in healthy mice. The class given is in vivo, C57BL/6 WT mice. As for the experimental part:
Next, biodistribution studies of compounds [^18F]1 and [^18F]2 were performed in female C57BL/6 WT mice. Dynamic (0–90 min), static (77–90 min), and late (240–260 min) scans were performed in a small animal PET scanner. Each PET scan was combined with computer tomography (CT). In the case of [^18F]2, […] of the tracer was excreted within the first 30 min via renal (19%ID) and hepatobiliary (60%ID, Figure 5A–C) routes. After 90 min, most of the tracer was found in the intestine, gallbladder, bladder (urine), and liver, while only 0.3 ± 0.1 %ID/mL of the radiosignal was detected in the blood at that time point (Figure 5B, C). Concentrations in the lung, heart, muscle, and brain were also relatively low. Nevertheless, during the first 3 min, the tracer was distributed within the whole body, reaching every tissue (Figure 5A).
The radiotracer [^18F]1 was injected into the tail vein, entered the heart, and was subsequently distributed throughout the whole body. […] Nearly no tracer accumulated in brain and urinary bladder, facilitating a favorable signal‐to‐noise ratio. We prolonged the imaging and performed an additional PET scan after 260 min to further increase the signal‐to‐background ratio. In all investigated residual organs (kidney, lung, heart, liver, and spleen), [^18F]1 was present even after 260 min, indicating a favorable biodistribution and high metabolic stability in vivo (Figure 5F).
Adult C57bl/6 (biodistribution study, 19.8±1.3 g) or tumor-bearing NSG mice (22.2±2.2 g) were anesthetized by isoflurane/O2, and one lateral tail vein was cannulated using a 27 G needle. A respective radiotracer (~ 390 kBq/g body weight) was injected as a bolus via the tail vein, and subsequent PET scanning was performed. A ~1000-fold excess of unlabeled JMS0414 (14 for [^18F]MRS-4648 ([^18F]2)), unlabeled PSB-19427 (1), or PSB-12651 (15) (for [^18F]PSB-19427 ([^18F]1)) was injected into a subgroup of tumor-bearing mice 10 min before radiotracer injection in the blocking studies. PET imaging studies were carried out using a submillimeter high resolution (0.7 mm full width at half-maximum) small animal scanner (32 module quadHIDAC, Oxford Positron Systems Ltd., Oxford, UK) with a uniform spatial resolution (<1 mm) over a large cylindrical field (165 mm diameter, 280 mm axial length). List-mode data were acquired for 90 min and reconstructed into dynamic time frames using an iterative reconstruction algorithm. In a subgroup of mice, measurements were complemented by late time point PET scans for 20 min 4 h after injection. Subsequently, after PET acquisitions, the scanning bed was transferred to the computed tomography (CT) scanner (Inveon, Siemens Medical Solutions, U.S.), and a CT acquisition with a spatial resolution of 80 μm was performed for each mouse. Final acquisitions were performed as contrast-enhanced CT with i.v. injection of iopromid (Ultravist®370). Reconstructed image data sets were coregistered based on extrinsic markers attached to the multimodal scanning bed, and the in-house developed image analysis software MEDgical (EIMI) was used for quantification. Three-dimensional volumes of interest (VOIs) were defined over the respective organs in CT data sets, transferred to the coregistered PET data, and analyzed quantitatively. Regional uptake was calculated as the percentage of injected dose by dividing counts per min (cpm) in the VOI by total counts in the mouse multiplied by 100 (%ID/mL). The clearance of the radiotracers was calculated based on the PET results. PET imaging studies using [^18F]FDG were performed analogously with a few variations. List-mode data were acquired for 60-75 min after tracer injection and reconstructed using an iterative reconstruction algorithm. Additionally, the scanned mice remained alive after PET and CT scans and were used the next day for imaging experiments with [^18F]PSB-19427 ([^18F]1) for direct comparison of [^18F]FDG and [^18F]PSB-19427 ([^18F]1). […]

Bounds are passed on as bounds.

On to `CCCN(Cc1ccc(-c2cn(CC[18F])nn2)cc1)c1nc(Cl)nc2c1ncn2[C@@H]1O[C@H](COP(=O)(O)CP(=O)(O)O)[C@@H](O)[C@H]1O` [[^18F]1, [^18F]-[((2R,3S,4R,5R)-5-{2-chloro-6-[(4-{1-[2-(fluoro)ethyl]-1H-1,2,3-triazol-4-yl}benzyl)-(propyl)amino]-9H-purin-9-yl}-3,4-dihydroxytetrahydrofuran-2-yl)methoxy]methylene-bisphosphonic acid], for which, for the setting “at 90 min p.i.”, the Hepatobiliary excretion route came out at 37 %ID and the “Radiosignal proportion in the blood” value is given as 18.2% ± 1.7 %ID/g. The Renal excretion route (time not given) was 2 %ID.

`Cn1c(=O)n([C@@H]2O[C@H](COP(=O)(O)CP(=O)(O)O)[C@@H](O)[C@H]2O)cc/c1=N/OCc1ccc(-c2cn(CC[18F])nn2)cc1` [[^18F]2, [^18F]-{[(2R,3S,4R,5R)-5-(4-{[(4-{1-[2-(fluoro)ethyl]-1H-1,2,3-triazol-4-yl}benzyl)-oxy]imino}-3-methyl-2-oxo-3,4-dihydropyrimidin-1(2H)-yl)-3,4-dihydroxytetra-hydrofuran-2-yl]methoxy}methylenebisphosphonic acid] came in with a Radiosignal in blood (after 90 min) of 0.3 ± 0.1 %ID/mL. For the setting “within the first 30 min”, this compound showed a Hepatobiliary excretion of 60 %ID and a Renal excretion of 19 %ID. In addition, the “Fraction of tracer excreted” value (within the first 30 min, i.v., female C57BL/6 WT mice) was over 95%.
